Among the data in ChEMBL document CHEMBL1909046, “DrugMatrix in vitro pharmacology data” are IC50 and Ki values, retold here.

Assay [1] has as its target Tyrosine-protein kinase Lck (Homo sapiens, UniProt P06239). Briefly: DRUGMATRIX: Protein Tyrosine Kinase, LCK enzyme inhibition (substrate: Poly(Glu:Tyr)). It counts as cell-based, Insect cells. The following applies: insect cells; Not Active = under 50% inhibition at 10 µM.
For the next assay, the target named is T1, Substance-K receptor (Homo sapiens, UniProt P21452). Further: in other assays of this panel Not Active means under 50% inhibition at 10 µM.
T1 sequence (P21452 whole entry): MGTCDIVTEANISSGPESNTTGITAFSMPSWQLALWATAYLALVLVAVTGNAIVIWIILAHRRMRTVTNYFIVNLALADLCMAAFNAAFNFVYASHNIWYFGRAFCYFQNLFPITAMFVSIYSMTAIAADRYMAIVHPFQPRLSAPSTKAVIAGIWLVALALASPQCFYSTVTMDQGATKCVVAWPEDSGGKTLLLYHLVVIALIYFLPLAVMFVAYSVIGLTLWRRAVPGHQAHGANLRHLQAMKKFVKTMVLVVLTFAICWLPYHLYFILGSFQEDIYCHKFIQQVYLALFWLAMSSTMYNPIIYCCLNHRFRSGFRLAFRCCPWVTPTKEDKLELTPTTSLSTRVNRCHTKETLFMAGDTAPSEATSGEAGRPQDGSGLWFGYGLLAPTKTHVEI
It counts as cell membranes, CHO, Membrane. The following applies: cho.

The target in a further assay is Histamine H2 receptor (Homo sapiens, UniProt P25021). It counts as cell membranes, CHO-K1, Membrane. The following applies: for Ki: read-out: Ki. On all read-outs here: in other assays of this panel Not Active means under 50% inhibition at 10 µM.
Sequence of Histamine H2 receptor (P25021 whole entry): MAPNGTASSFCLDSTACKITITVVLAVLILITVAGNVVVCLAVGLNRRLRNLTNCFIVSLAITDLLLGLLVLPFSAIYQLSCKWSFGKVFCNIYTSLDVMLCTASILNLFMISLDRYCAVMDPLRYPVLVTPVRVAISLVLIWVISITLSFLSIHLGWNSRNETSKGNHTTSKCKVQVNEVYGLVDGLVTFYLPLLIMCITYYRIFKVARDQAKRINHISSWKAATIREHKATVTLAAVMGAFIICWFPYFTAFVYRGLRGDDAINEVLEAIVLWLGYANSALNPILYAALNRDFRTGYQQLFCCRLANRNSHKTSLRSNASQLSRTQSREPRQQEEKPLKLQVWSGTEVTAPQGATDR
In another assay the target is Mu-type opioid receptor (Homo sapiens, UniProt P35372). Briefly: DRUGMATRIX: Opiate mu (OP3, MOP) radioligand binding (ligand: [3H] Diprenorphine). It counts as cell membranes, CHO-K1, Membrane. The following applies: cho-k1; Not Active = under 50% inhibition at 10 µM.
Sequence of Mu-type opioid receptor (P35372 whole entry): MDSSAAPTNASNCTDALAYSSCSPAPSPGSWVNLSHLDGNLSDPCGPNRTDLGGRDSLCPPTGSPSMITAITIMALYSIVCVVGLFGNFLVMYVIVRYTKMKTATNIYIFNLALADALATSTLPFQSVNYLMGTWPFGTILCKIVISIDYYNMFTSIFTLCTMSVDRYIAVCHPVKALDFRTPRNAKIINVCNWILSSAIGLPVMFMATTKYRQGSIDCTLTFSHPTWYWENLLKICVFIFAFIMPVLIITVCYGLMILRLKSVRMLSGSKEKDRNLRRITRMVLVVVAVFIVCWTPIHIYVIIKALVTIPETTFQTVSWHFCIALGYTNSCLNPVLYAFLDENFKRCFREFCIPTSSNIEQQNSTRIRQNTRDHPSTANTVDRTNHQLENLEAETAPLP
For assay [2], the target named is T2, Alpha-2C adrenergic receptor (Homo sapiens, UniProt P18825).
T2 sequence (P18825 whole entry): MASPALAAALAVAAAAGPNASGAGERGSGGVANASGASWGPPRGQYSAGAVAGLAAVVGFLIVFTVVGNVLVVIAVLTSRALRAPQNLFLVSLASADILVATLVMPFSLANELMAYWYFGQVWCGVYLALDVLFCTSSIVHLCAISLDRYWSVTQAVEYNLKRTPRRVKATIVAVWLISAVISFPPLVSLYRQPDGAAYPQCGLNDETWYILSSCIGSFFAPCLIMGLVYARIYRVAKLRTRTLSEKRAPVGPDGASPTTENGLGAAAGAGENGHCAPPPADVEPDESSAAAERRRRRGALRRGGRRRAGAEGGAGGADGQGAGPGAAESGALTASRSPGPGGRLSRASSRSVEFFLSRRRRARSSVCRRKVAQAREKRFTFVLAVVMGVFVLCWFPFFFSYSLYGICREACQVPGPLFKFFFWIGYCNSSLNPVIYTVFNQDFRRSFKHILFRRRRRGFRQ
Briefly: DRUGMATRIX: Adrenergic Alpha-2C radioligand binding (ligand: [3H] MK-912). It counts as cell membranes, Sf9, Membrane.

Sequence of Tyrosine-protein kinase Lck (P06239 whole entry): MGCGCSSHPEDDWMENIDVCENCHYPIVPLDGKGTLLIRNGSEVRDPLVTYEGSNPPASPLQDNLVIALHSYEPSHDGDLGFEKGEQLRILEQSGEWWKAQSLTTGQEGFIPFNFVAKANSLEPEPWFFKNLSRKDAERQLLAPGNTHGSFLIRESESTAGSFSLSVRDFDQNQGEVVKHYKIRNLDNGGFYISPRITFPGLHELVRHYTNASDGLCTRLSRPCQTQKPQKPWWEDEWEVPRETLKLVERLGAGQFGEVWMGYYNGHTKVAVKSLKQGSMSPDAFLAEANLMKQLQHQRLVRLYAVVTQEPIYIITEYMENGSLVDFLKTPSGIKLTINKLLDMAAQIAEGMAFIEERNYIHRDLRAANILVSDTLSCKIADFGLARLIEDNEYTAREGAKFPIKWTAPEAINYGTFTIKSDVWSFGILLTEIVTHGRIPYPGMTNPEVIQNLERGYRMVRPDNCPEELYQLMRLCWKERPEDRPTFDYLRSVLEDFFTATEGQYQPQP

In the case of `Nc1cc(-c2ccncc2)c[nH]c1=O` [INAMRINONE], the IC50 entry (in assay [1]; against Substance-K receptor; on Histamine H2 receptor (cho-k1); on Mu-type opioid receptor; in assay [2] (sf9)) was “Not Active” each time.
In the case of `CCCCC1=NC2(CCCC2)C(=O)N1Cc1ccc(-c2ccccc2-c2nnn[nH]2)cc1` [IRBESARTAN], the IC50 result (in assay [1]; at Substance-K receptor; at Histamine H2 receptor (cho-k1); on Mu-type opioid receptor; in assay [2] (sf9)) was “Not Active” in each case.
As to `CN1CCC(=C2c3ccccc3CC(=O)c3sccc32)CC1` [KETOTIFEN], the 50% inhibitory concentration (IC50) entry was “Not Active” in assay [1]; “Not Active” at Substance-K receptor; 4.13 µM at Histamine H2 receptor (read-out: IC50); “Not Active” at Mu-type opioid receptor; “Not Active” in assay [2] (sf9). In addition, the Ki on Histamine H2 receptor came out at 4.06 µM.
In the case of `N[C@@H](Cn1ccc(=O)c(O)c1)C(=O)O` [L-MIMOSINE], the IC50 entry (in assay [1]; against Substance-K receptor; against Histamine H2 receptor (cho-k1); at Mu-type opioid receptor; in assay [2] (sf9)) was “Not Active” each time.
Turning to `C[N+](C)(C)C[C@H](O)CC(=O)[O-]` [LEVOCARNITINE], the IC50 result (in assay [1]; at Substance-K receptor; against Histamine H2 receptor (cho-k1); on Mu-type opioid receptor; in assay [2] (sf9)) was “Not Active” throughout.
Turning to `C[C@H]1COc2c(N3CCN(C)CC3)c(F)cc3c(=O)c(C(=O)O)cn1c23.C[C@H]1COc2c(N3CCN(C)CC3)c(F)cc3c(=O)c(C(=O)O)cn1c23.O` [LEVOFLOXACIN], the half-maximal inhibitory concentration (IC50) entry (in assay [1]; against Substance-K receptor; against Histamine H2 receptor (cho-k1); at Mu-type opioid receptor; in assay [2] (sf9)) was “Not Active” in each case.
As for `CCn1cc(C(=O)O)c(=O)c2cc(F)c(N3CCNC(C)C3)c(F)c21` (stereo not drawn) [LOMEFLOXACIN], the half-inhibitory concentration (IC50) entry (in assay [1]; against Substance-K receptor; on Histamine H2 receptor (cho-k1); at Mu-type opioid receptor; in assay [2] (sf9)) was “Not Active” each time.
On to `CN1CCCC(CN2c3ccccc3Sc3ccccc32)C1` (stereo not drawn) [MEPAZINE], for which the concentration for half-maximal inhibition (IC50) result (in assay [1]; on Substance-K receptor; against Histamine H2 receptor (cho-k1); at Mu-type opioid receptor; in assay [2] (sf9)) was “Not Active” throughout.
On to `Cc1cccc(C)c1NC(=O)C1CCCCN1C` (stereo not drawn) [MEPIVACAINE], for which the IC50 result (in assay [1]; against Substance-K receptor; against Histamine H2 receptor (cho-k1); at Mu-type opioid receptor; in assay [2] (sf9)) was “Not Active” each time.
For the compound `CN(C)C(=N)NC(=N)N` [METFORMIN], the half-inhibitory concentration (IC50) result (in assay [1]; at Substance-K receptor; against Histamine H2 receptor (cho-k1); on Mu-type opioid receptor; in assay [2] (sf9)) was “Not Active” each time.
`CC(C)(C)NCC(O)COc1cccc2c1CC(O)C(O)C2` (stereo not drawn) [NADOLOL]: the IC50 entry (in assay [1]; against Substance-K receptor; on Histamine H2 receptor (cho-k1); on Mu-type opioid receptor; in assay [2] (sf9)) was “Not Active” in each case.
As to `C[C@@H]1C/C=C/C=C/C=C/C=C/[C@H](O[C@@H]2O[C@H](C)[C@@H](O)[C@H](N)[C@@H]2O)C[C@@H]2O[C@](O)(C[C@@H](O)C[C@H]3O[C@@H]3/C=C/C(=O)O1)C[C@H](O)[C@H]2C(=O)O` [NATAMYCIN], the IC50 entry (in assay [1]; against Substance-K receptor; on Histamine H2 receptor (cho-k1); at Mu-type opioid receptor; in assay [2] (sf9)) was “Not Active” throughout.
In the case of `CN(C)C(=O)Oc1cccc([N+](C)(C)C)c1.[Br-]` [NEOSTIGMINE BROMIDE], the IC50 entry (in assay [1]; against Substance-K receptor; against Histamine H2 receptor (cho-k1); on Mu-type opioid receptor; in assay [2] (sf9)) was “Not Active” throughout.
Consider `NC(=O)c1cccnc1` [NIACINAMIDE], for which the 50% inhibitory concentration (IC50) entry (in assay [1]; against Substance-K receptor; against Histamine H2 receptor (cho-k1); at Mu-type opioid receptor; in assay [2] (sf9)) was “Not Active” throughout.
For the compound `CS(=O)(=O)Nc1ccc([N+](=O)[O-])cc1Oc1ccccc1` [NIMESULIDE], the IC50 result (in assay [1]; at Substance-K receptor; against Histamine H2 receptor (cho-k1); on Mu-type opioid receptor; in assay [2] (sf9)) was “Not Active” each time.
Consider `CN1C(=O)CN=C(c2ccccc2)c2cc([N+](=O)[O-])ccc21` [NIMETAZEPAM], for which the IC50 entry (in assay [1]; at Substance-K receptor; on Histamine H2 receptor (cho-k1); at Mu-type opioid receptor; in assay [2] (sf9)) was “Not Active” throughout.
For `COc1ccc2c(c1OC)C(=O)O[C@@H]2[C@H]1c2c(cc3c(c2OC)OCO3)CCN1C` [NOSCAPINE], the 50% inhibitory concentration (IC50) result (in assay [1]; at Substance-K receptor; against Histamine H2 receptor (cho-k1); on Mu-type opioid receptor; in assay [2] (sf9)) was “Not Active” in each case.
`NC(=O)N1c2ccccc2CC(=O)c2ccccc21` [OXCARBAZEPINE]: the IC50 entry (in assay [1]; at Substance-K receptor; at Histamine H2 receptor (cho-k1); on Mu-type opioid receptor; in assay [2] (sf9)) was “Not Active” in each case.
`COc1ccnc(C[S+]([O-])c2nc3ccc(OC(F)F)cc3[nH]2)c1OC` (stereo not drawn) [PANTOPRAZOLE]: the IC50 result (in assay [1]; on Substance-K receptor; against Histamine H2 receptor (cho-k1); at Mu-type opioid receptor; in assay [2] (sf9)) was “Not Active” each time.
Consider `N=C(N)c1ccc(OCCCCCOc2ccc(C(=N)N)cc2)cc1` [PENTAMIDINE], for which the IC50 entry (in assay [1]; at Substance-K receptor; against Histamine H2 receptor (cho-k1); at Mu-type opioid receptor; in assay [2] (sf9)) was “Not Active” each time.
Turning to `NNCCc1ccccc1` [PHENELZINE], the IC50 entry (in assay [1]; on Substance-K receptor; on Histamine H2 receptor (cho-k1); at Mu-type opioid receptor; in assay [2] (sf9)) was “Not Active” in each case.
For the compound `CCc1ccc(CCOc2ccc(CC3SC(=O)NC3=O)cc2)nc1` (stereo not drawn) [PIOGLITAZONE], the half-inhibitory concentration (IC50) entry (in assay [1]; against Substance-K receptor; at Histamine H2 receptor (cho-k1); at Mu-type opioid receptor; in assay [2] (sf9)) was “Not Active” throughout.
As to `CCCNC(C)C(=O)Nc1ccccc1C` (stereo not drawn) [PRILOCAINE], the half-inhibitory concentration (IC50) result (in assay [1]; against Substance-K receptor; against Histamine H2 receptor (cho-k1); at Mu-type opioid receptor; in assay [2] (sf9)) was “Not Active” throughout.
As for `CCN(CC)CCNC(=O)c1ccc(N)cc1` [PROCAINAMIDE], the half-maximal inhibitory concentration (IC50) result (in assay [1]; against Substance-K receptor; on Histamine H2 receptor (cho-k1); on Mu-type opioid receptor; in assay [2] (sf9)) was “Not Active” each time.
On to `CCN(CC)CCCC(C)Nc1c2ccc(Cl)cc2nc2ccc(OC)cc12` (stereo not drawn) [QUINACRINE], for which the IC50 entry in assay [1] is “Not Active”; on Substance-K receptor, “Not Active”; on Histamine H2 receptor (read-out: IC50), 3.54 µM; on Mu-type opioid receptor, “Not Active”; in assay [2] (read-out: IC50), 3.86 µM. Further, the Ki came out at 3.48 µM on Histamine H2 receptor and 0.56 µM in assay [2] (read-out: Ki).
For the compound `C[C@]12C=CC(=O)C=C1CC[C@H]1[C@@H]3C[C@@H](O)[C@](O)(C(=O)CO)[C@@]3(C)C[C@H](O)[C@@]12F` [TRIAMCINOLONE], the concentration for half-maximal inhibition (IC50) entry (in assay [1]; at Substance-K receptor; against Histamine H2 receptor (cho-k1); at Mu-type opioid receptor; in assay [2] (sf9)) was “Not Active” each time.
Consider `CC[C@]1(O)C[C@@H]2CN(CCc3c([nH]c4ccccc34)[C@@](C(=O)OC)(c3cc4c(cc3OC)N(C)[C@H]3[C@@](O)(C(N)=O)[C@H](O)[C@]5(CC)C=CCN6CC[C@]43[C@@H]65)C2)C1` [VINDESINE], for which the IC50 entry (in assay [1]; at Substance-K receptor; at Histamine H2 receptor (cho-k1); at Mu-type opioid receptor; in assay [2] (sf9)) was “Not Active” throughout.
Take `CCN(C(C)=O)c1cccc(-c2ccnc3c(C#N)cnn23)c1` [ZALEPLON]: the IC50 entry (in assay [1]; against Substance-K receptor; against Histamine H2 receptor (cho-k1); on Mu-type opioid receptor; in assay [2] (sf9)) was “Not Active” throughout.

What is called IC50 is the midpoint of a concentration-inhibition curve. Usually Ki stands for a dissociation constant, usually derived from enzyme kinetics or from competition with a known ligand.
